Reference: patent publication US20250154169A1, “COMPOUNDS AND METHODS FOR MODULATING SPLICING” (REMIX THERAPEUTICS INC., priority 2021, published 2025)
Structures can show the parent of a compound that is named as a salt. Where two headings read alike, the source gives them in different places.

Key:
Type in all cases: cell-based, human
[1] = system: HTT mRNA; assay: Splicing RT-qPCR assay, HTT canonical (CJ) and alternative (AJ) junction mRNA; details: Homo sapiens
Outline: (§1)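 Canonical (CJ) and alternative-exon (AJ) junction mRNAs quantified by one-step RT-qPCR in cell lysates, normalized to housekeeping PPIA for A673 and GAPDH or GUSB for K562. Cells were exposed 24 h at 37 °C to 11-point 3-fold compound series from 10 uM final, with DMSO at or below 0.25%.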

[2] = system: MYB mRNA; assay: Splicing RT-qPCR assay, MYB canonical (CJ) and alternative (AJ) junction mRNA; details: Homo sapiens
Outline: as §1

[3] = system: SMN2 mRNA; assay: Splicing RT-qPCR gene panel, SMN2 canonical junction (CJ) mRNA; details: Homo sapiens, Tables 4A/4B, read-out: SMN2 (IC50, decrease in CJ mRNA, gene panel)
Outline: (§2)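 Read-out: RT-qPCR of the canonical exon-exon junction transcript, ΔCt vs housekeeping gene, normalized to DMSO, RQ = 2^(−ΔΔCt), converted to percentage response. Cells, A673 or K562, were dosed 24 h at 37 °C across 11 3-fold dilutions from 10 uM.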

[4] = system: Target C mRNA; assay: Splicing RT-qPCR gene panel, Target C canonical junction (CJ) mRNA; details: Homo sapiens, Tables 4A/4B, read-out: Target C (IC50, decrease in CJ mRNA, gene panel)
Outline: as §2

[5] = system: HTT mRNA; assay: Splicing RT-qPCR gene panel, HTT canonical junction (CJ) mRNA; details: Homo sapiens, Tables 4A/4B, read-out: HTT (IC50, decrease in CJ mRNA, gene panel)
Outline: as §2

[6] = 24 h, A673 or K562 cells, 24 hours compound treatment, read-out: HTT CJ (IC50, decrease in canonical junction mRNA)
[7] = A673 or K562 cells, 24 hours compound treatment, read-out: HTT AJ (AC50, increase in alternative junction mRNA)
[8] = 24 h, A673 or K562 cells, 24 hours compound treatment, RT-qPCR, read-out: MYB AJ (AC50, increase in alternative junction mRNA)
[9] = 24 h, A673 or K562 cells, 24 hours compound treatment, RT-qPCR, read-out: MYB CJ (IC50, decrease in canonical junction mRNA)
[10] = Tables 4A/4B, canonical junction qPCR panel, read-out: MYB (IC50, decrease in CJ mRNA, gene panel)
[11] = Table 3B, alternative junction mRNA, read-out: HTT AJ (AC50, increase in AJ mRNA)
[12] = Table 3B, canonical junction mRNA, read-out: HTT CJ (IC50, decrease in CJ mRNA)
[13] = Table 3B, canonical junction mRNA, RT-qPCR, read-out: MYB CJ (IC50, decrease in CJ mRNA)
[14] = Table 3B, alternative junction mRNA, RT-qPCR, read-out: MYB AJ (AC50, increase in AJ mRNA)

Row | IC50 [1, 6] [nM] | IC50 [2, 9] [nM] | IC50 [2, 10] [nM] | IC50 [3] [nM] | IC50 [4] [nM] | IC50 [5] [nM] | IC50 [1, 12] [nM] | IC50 [2, 13] [nM] | Compound | AC50 [1, 7] [nM] | AC50 [2, 8] [nM] | AC50 [1, 11] [nM] | AC50 [2, 14] [nM]
1 | > 10000 | 1000 to 10000 | 1000 to 10000 | 1000 to 10000 | > 10000 | > 10000 |  |  | Cc1cn2cc(NC(=O)c3ccc(N4CCNCC4)c4cn(CC56CC(O)(C5)C6)nc34)cc(F)c2n1 [Compound 414, N-{8-fluoro-2-methylimidazo[1,2-a]pyridin-6-yl}-2-({3-hydroxybicyclo[1.1.1]pentan-1-yl}methyl)-4-(piperazin-1-yl) indazole-7-carboxamide 2,2,2-trifluoroacetate] | > 10000 | 1000 to 10000 |  | 
2 | 100 to 1000 | 100 to 1000 | < 100 | < 100 | > 10000 | 1000 to 10000 |  |  | CCn1cc2c(N3CCC(NC4CC4)CC3)ccc(C(=O)Nc3cc(F)c4nc(C)cn4c3)c2n1 [Compound 376, 4-[4-(cyclopropylamino)piperidin-1-yl]-2-ethyl-N-{8-fluoro-2-methylimidazo[1,2-a]pyridin-6-yl}indazole-7-carboxamide] | 1000 to 10000 | 100 to 1000 |  | 
3 |  |  | < 100 | < 100 | 1000 to 10000 | 100 to 1000 | 100 to 1000 | < 100 | Cc1cn2cc(NC(=O)c3ccc(N4CCNCC4)c4csnc34)cc(F)c2n1 [Compound 941] |  |  | 100 to 1000 | < 100
4 | > 10000 | 1000 to 10000 | 1000 to 10000 | 100 to 1000 | > 10000 | > 10000 |  |  | Cc1cn2cc(NC(=O)c3ccc(N4CCC(CN)CC4)c4cn(C)nc34)cc(F)c2n1 [Compound 335, 4-[4-(aminomethyl)piperidin-1-yl]-N-{8-fluoro-2-methylimidazo[1,2-a]pyridin-6-yl}-2-methylindazole-7-carboxamide] | > 10000 | 1000 to 10000 |  | 
5 | 100 to 1000 | < 100 | < 100 | < 100 | > 10000 | 100 to 1000 |  |  | Cc1nc2c(F)cc(NC(=O)c3ccc(N4CCNCC4)c4cn(C)nc34)cn2n1 [Compound 462, N-{8-fluoro-2-methyl-[1,2,4]triazolo[1,5-a]pyridin-6-yl}-2-methyl-4-(piperazin-1-yl) indazole-7-carboxamide] | 100 to 1000 | < 100 |  | 
6 | > 10000 | 100 to 1000 | 100 to 1000 | < 100 | > 10000 | > 10000 |  |  | Cc1cn2cc(NC(=O)c3ccc(N4CCC5(CCN5)C4)c4cn(C)nc34)cc(F)c2n1 (stereo not drawn) [Compound 299, 4-{1,6-diazaspiro[3.4]octan-6-yl}-N-{8-fluoro-2-methylimidazo[1,2-a]pyridin-6-yl}-2-methylindazole-7-carboxamide] | > 10000 | 100 to 1000 |  | 
7 | 1000 to 10000 | 100 to 1000 | 100 to 1000 | < 100 | 1000 to 10000 | 1000 to 10000 |  |  | CCn1cc2c(N3CCNC4(CC4)C3)ccc(C(=O)Nc3cc(F)c4nc(C)cn4c3)c2n1 [Compound 379, 4-{4,7-diazaspiro[2.5]octan-7-yl}-2-ethyl-N-{8-fluoro-2-methylimidazo[1,2-a]pyridin-6-yl}indazole-7-carboxamide] | > 10000 | 1000 to 10000 |  | 
8 | 1000 to 10000 | 100 to 1000 | 100 to 1000 | < 100 | > 10000 | 1000 to 10000 |  |  | COC(C)Cn1cc2c(N3CCNCC3)ccc(C(=O)Nc3cc(F)c4nc(C)cn4c3)c2n1 (stereo not drawn) [Compound 367, N-{8-fluoro-2-methylimidazo[1,2-a]pyridin-6-yl}-2-(2-methoxypropyl)-4-(piperazin-1-yl) indazole-7-carboxamide; trifluoroacetic acid] | 1000 to 10000 | 100 to 1000 |  | 
9 | 1000 to 10000 | < 100 | < 100 | < 100 | > 10000 | 1000 to 10000 |  |  | COCCCn1cc2c(N3CCNCC3)ccc(C(=O)Nc3cc(F)c4nc(C)cn4c3)c2n1 [Compound 302, N-{8-fluoro-2-methylimidazo[1,2-a]pyridin-6-yl}-2-(3-methoxypropyl)-4-(piperazin-1-yl)indazole-7-carboxamide] | 1000 to 10000 | < 100 |  | 
10 | > 10000 | 100 to 1000 | 100 to 1000 | < 100 | > 10000 | > 10000 |  |  | Cc1cn2cc(NC(=O)c3ccc(N4CCNCC4)c4cn(C)nc34)nc2c(C)n1 [Compound 273] | > 10000 | 100 to 1000 |  | 

More lines, now with the values behind:

Row | Compound | IC50 [1, 6] [nM] | IC50 [2, 9] [nM] | IC50 [2, 10] [nM] | IC50 [3] [nM] | IC50 [4] [nM] | IC50 [5] [nM] | IC50 [1, 12] [nM] | IC50 [2, 13] [nM] | AC50 [1, 7] [nM] | AC50 [2, 8] [nM] | AC50 [1, 11] [nM] | AC50 [2, 14] [nM]
11 | Cc1cn2nc(NC(=O)c3ccc(N4CCNCC4)c4cn(C)nc34)cc(C)c2n1 [Compound 322, N-{2,8-dimethylimidazo[1,2-b]pyridazin-6-yl}-2-methyl-4-(piperazin-1-yl) indazole-7-carboxamide hydrochloride] | > 10000 | 1000 to 10000 | 1000 to 10000 | 1000 to 10000 | > 10000 | > 10000 |  |  | > 10000 | > 10000 |  | 
12 | COc1c(NC(=O)c2ccc(N3CCNCC3)c3oc(C)nc23)cn2cc(C)nc2c1F [Compound 428, N-{8-fluoro-7-methoxy-2-methylimidazo[1,2-a]pyridin-6-yl}-2-methyl-7-(piperazin-1-yl)-1,3-benzoxazole-4-carboxamide] | < 100 | < 100 | < 100 | < 100 | 100 to 1000 | < 100 |  |  | < 100 | < 100 |  | 
13 | Cc1cn2cc(NC(=O)c3ccc(C4CCNCC4)c4c3OCC4)cc(F)c2n1 [Compound 188] | > 10000 | 1000 to 10000 | 1000 to 10000 | 100 to 1000 | 1000 to 10000 | > 10000 |  |  | > 10000 | 1000 to 10000 |  | 
14 | Cc1cn2cc(NC(=O)c3ccc(N4CC[C@@H](NC5CC5)C4)c4cc(C)nn34)cc(F)c2n1 [Compound 963] |  |  | 100 to 1000 | < 100 | > 10000 | 1000 to 10000 | 1000 to 10000 | 100 to 1000 |  |  | 1000 to 10000 | 100 to 1000
15 | Cc1nc2c(F)cc(NC(=O)c3ccc(N4CCNCC4)c4cn(C)nc34)cc2s1 [Compound 235] | 1000 to 10000 | 100 to 1000 | 100 to 1000 | < 100 | > 10000 | 1000 to 10000 |  |  | 1000 to 10000 | 100 to 1000 |  | 
16 | CC1=CC2=NC(C)=NC2C=C1NC(=O)c1ccc(N2CCNCC2)c2cn(C)nc12 (stereo not drawn) [Compound 237] | 1000 to 10000 | 100 to 1000 | 100 to 1000 | < 100 | > 10000 | 1000 to 10000 |  |  | 1000 to 10000 | < 100 |  | 
17 | Cc1cn2cc(NC(=O)c3ccc(N4C[C@H]5CC[C@@H](C4)N5)c4cc(C)oc34)cc(F)c2n1 [Compound 255] | 1000 to 10000 | 100 to 1000 | 100 to 1000 | < 100 | > 10000 | 1000 to 10000 |  |  | 1000 to 10000 | < 100 |  | 
18 | CCn1cc2c(NC3CCNCC3)ccc(C(=O)Nc3cc(F)c4nc(C)cn4c3)c2n1 [Compound 476, 2-ethyl-N-{8-fluoro-2-methylimidazo[1,2-a]pyridin-6-yl}-4-(piperidin-4-ylamino) indazole-7-carboxamide] | 100 to 1000 | 1000 to 10000 | 1000 to 10000 | 100 to 1000 | 1000 to 10000 | 100 to 1000 |  |  | 1000 to 10000 | 1000 to 10000 |  | 
19 | CCNC1CCN(c2ccc(C(=O)Nc3cc(F)c4nc(C)cn4c3)n3nc(C(C)O)cc23)C1 (stereo not drawn) [Compound 961] |  |  | < 100 | < 100 | 100 to 1000 | 100 to 1000 | 100 to 1000 | < 100 |  |  | 100 to 1000 | < 100
20 | CCc1cn2c(N3CCNCC3)ccc(C(=O)Nc3cc(F)c4nc(C)cn4c3)c2n1 [Compound 943] |  |  | < 100 | < 100 | 1000 to 10000 | 100 to 1000 | 100 to 1000 | < 100 |  |  | 1000 to 10000 | < 100
21 | Cc1cn2cc(NC(=O)c3ccc(N4CCC(NC5CC5)CC4)c4csnc34)cc(F)c2n1 [Compound 974] |  |  | < 100 | < 100 | 100 to 1000 | 100 to 1000 | 100 to 1000 | < 100 |  |  | 100 to 1000 | < 100
